Test results: patent publication US7576128B2 (priority 2004, dated 2009)

Key:
[1] = test system: male Syrian hamsters; test: Animal model for inhibition of sebum production (hamster ear, HPLC of sebum components); assay type: in vivo; settings: for % Reduction in CE: cholesterol ester; for % Reduction in CE / % Reduction in WE: 3 w/v% topical twice daily, five days a week, 4 weeks, difference from vehicle control; for Sum CE + WE: summation of CE and WE reductions; for % Reduction in WE: wax ester
Procedure: Luderschmidt et al describes an animal model for testing whether compounds are capable of modulating sebum secretion. Arch. Derm. Res. 258, 185-191 (1977). This model uses male Syrian hamsters, whose ears contain sebaceous glands. Selected compounds produced above were screened in this model.
Testing for sebum inhibition was carried out in the following manner. Male Syrian hamsters aged 9 to 10 weeks were introduced into the laboratory environment and acclimated for 2 weeks prior to use in the study. Each group consisted of 5 animals and were run in parallel with vehicle and positive controls. Prior to administration, 30mg of each compound was dissolved in 1 mL of Universal solvent (ethanol/propylene glycol (70/30%v/v) to achieve a final concentration of 3 w/v%.
Animals were dosed topically twice daily, five days a week, for 4 weeks. Each dose consisted of 25 micro liters of vehicle control or drug. The dose was applied to the ventral surfaces of both the right and left ears. All animals were sacrificed approximately 18-24 hours after the final dose. The right ears were collected from each animal and used for sebum analysis.
The ears were prepped for HPLC analysis in the following manner. One 8mm distal biopsy punch was taken, just above the anatomical “V” mark in the ear to normalize the sample area. The punch was pulled apart. The ventral biopsy surface (the area where the topical dose was directly applied to the sebaceous glands) was retained for testing and the dorsal surface of the biopsy punch was discarded.
HPLC analysis was carried out on an extract of the tissue sample. Tissue samples were contacted with 3ml of solvent (a 4:1 admixture of 2,2,4-trimethylpentane and isopropyl alcohol). The mixture was shaken for 15 minutes and stored overnight at room temperature, protected from light. The next morning 1 milliliter of water was added to the sample and shaken for 15 minutes. The sample was then centrifuged at approximately 1500 rpm for 15 minutes. Two ml of the organic phase (top layer) was transferred to a glass vial, dried at 37° C., under nitrogen, for approximately 1 hour, and then lyophilized for approximately 48 hours. The samples were then removed from the lyophilizer and each vial was reconstituted with 600 μl of solvent A (trimethylpentane/tetrahydrofuran (99:1). The samples were then recapped and vortexed for 5 minutes.
The results are reported as the reduction in cholesterol ester (CE) and wax ester (WE) production, when compared to the vehicle control.
Columns 1 and 2 identify the compound by structure and Example number. Columns 3 through 5 show the effect the compounds had on the -reduction of sebum components (CE and WE). The results are expressed as the difference from the vehicle control. A positive number reflects a decrease in the production of the sebum component being measured, i.e. cholesterol ester (CE) or wax ester (WE).

[2] = test system: Male C3H/HeN mice; test: Modified telogen conversion assay (hair growth, induction of anagen); assay type: in vivo; settings: topical twice daily for 4 weeks
From the text: It has been discovered that male C3H/HeN mice may be used in the telogen conversion assay, when evaluating anti-androgen test compounds. Thus, the model relates to a modification of the existing telogen conversion assay. Male C3H/HeN mice approximately 7 weeks old are utilized. These animals are also uniformly in telogen, like their female counterparts. However, once shaven, the androgens inherently present in these male mice inhibit the conversion of the hair follicles to the anagen phase. An anti-androgen will block this androgenic effect and the follicles will convert to anagen, like their female counterparts.
Male C3H/HeN mice, 6 to 7 weeks old (Charles River Laboratories, Raleigh, N.C.) were used for the study. Fur was clipped from the dorsal region of the mice prior to initiation of the study. Only mice with pink skin, a visual indication of the telogen phase, were selected for inclusion in the study.
The test compound was dissolved in a vehicle consisting of propylene glycol (30%) and ethanol (70%) to achieve a concentration of either 0.2% w/v, 0.5% w/v, 1% w/v or 3% w/v. The relevant dose was applied topically to the clipped dorsal region of the mice in one test group (7-10 mice) in a volume of 20 μl/cm^2. A third group of animals received only the vehicle to serve as a control. Treatments were applied twice daily for 4 weeks.
The treatment area was observed and graded every other day for signs of hair growth. The hair growth response was quantified by recording, for each animal, the day on which signs of hair growth first appeared over the treated area. The first sign of anagen was the darkening of skin color as melanocytes in the follicles started to synthesize melanin in preparation for the production of pigmented hairs. […] The percentage of mice showing signs of hair growth in both the treatment group and the control group is graphically depicted in FIG. 1.

CCCCC(COc1ccc(C#N)c(C(F)(F)F)c1)C(C)O (centres unmarked) [Example 15, 4-[2-(1-Hydroxy-ethyl)-hexyloxy]-2-tri-fluoromethyl-benzonitrile] was tested, and the “% Reduction in CE” value [1] was 54%, the “Sum CE + WE” value [1] was 128% and the “% Reduction in WE” value [1] was 74%.
For C[C@H](O)CC[C@H](C)Oc1ccc(C#N)c(C(F)(F)F)c1 [Example 23, (1S,4S)-4-(4-Hy-droxy-1-methylpentyl-oxy)-2-tri-fluoromethyl-benzonitrile], the “rate of hair growth versus vehicle control group” value ([2]; 5% test group) was “did not exceed that of the vehicle control group”, the “hair growth (induction of anagen)” value ([2]; concentration of 1%) was “produced substantial hair growth” and the “% Reduction in CE” value [1] was 67%. For the same compound, the “Sum CE + WE” value [1] was 154% and the “% Reduction in WE” value [1] was 87%.
